This is an account of results in US11471537B2, “Oligomer extended insulin-Fc conjugates” (Novo Nordisk A/S, priority 2017, dated 2022).

One data set deals with Sprague-Dawley rats. The experiment in a line: PD studies: blood glucose after subcutaneous dosing. In kind it is in vivo. The settings on record: sc, dose 30 nmol/kg. An outline of the steps:
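Normal male Sprague-Dawley rats (~350 g), fed ad libitum, received a single subcutaneous neck dose of 30 nmol/kg unless otherwise stated. Tongue-vein blood was sampled up to 10 days post-dose for blood glucose (Biosen analyser) and plasma insulin.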

Data set [1] in a line: PK studies: intravenous and subcutaneous administration to SD rats, insulin-Fc concentrations by immuno-assay. The data set is classed as in vivo. The settings on record: for PK rat sc [T½ (h)] Mean Value: subcutaneous. Here is the method:
Insulin-Fc conjugates were tested in vivo by intravenous and subcutaneous administration to SD rats. Blood samples were collected and the insulin-Fc concentrations were measured by immuno-assay.

Another data set has as its target insulin receptor A (Homo sapiens, UniProt P06213). The experiment in a line: Insulin receptor affinity. The data set is classed as binding. The settings on record: relative to affinity of human insulin for insulin receptor A (100%).
The subject of a further data set is isolated rat adipocytes. Nature of the data set: Insulin-stimulated lipogenesis. The data set is classed as cell-based. The following applies: 1% HSA; relative to the activity of human insulin (100%). How it is done:
Insulin-stimulated lipogenesis was measured in isolated rat adipocytes in presence of 1% HSA as described in Moody A J, Stan M A, Stan M, Gliemann J. A Simple Free Fat Cell Bioassay for Insulin. Hormone And Metabolic Research. 1974; 6(1):12-6, see results in Table 6.

insulin receptor A, sequence (P06213 28-1370 isoform P06213-2 limits assumed): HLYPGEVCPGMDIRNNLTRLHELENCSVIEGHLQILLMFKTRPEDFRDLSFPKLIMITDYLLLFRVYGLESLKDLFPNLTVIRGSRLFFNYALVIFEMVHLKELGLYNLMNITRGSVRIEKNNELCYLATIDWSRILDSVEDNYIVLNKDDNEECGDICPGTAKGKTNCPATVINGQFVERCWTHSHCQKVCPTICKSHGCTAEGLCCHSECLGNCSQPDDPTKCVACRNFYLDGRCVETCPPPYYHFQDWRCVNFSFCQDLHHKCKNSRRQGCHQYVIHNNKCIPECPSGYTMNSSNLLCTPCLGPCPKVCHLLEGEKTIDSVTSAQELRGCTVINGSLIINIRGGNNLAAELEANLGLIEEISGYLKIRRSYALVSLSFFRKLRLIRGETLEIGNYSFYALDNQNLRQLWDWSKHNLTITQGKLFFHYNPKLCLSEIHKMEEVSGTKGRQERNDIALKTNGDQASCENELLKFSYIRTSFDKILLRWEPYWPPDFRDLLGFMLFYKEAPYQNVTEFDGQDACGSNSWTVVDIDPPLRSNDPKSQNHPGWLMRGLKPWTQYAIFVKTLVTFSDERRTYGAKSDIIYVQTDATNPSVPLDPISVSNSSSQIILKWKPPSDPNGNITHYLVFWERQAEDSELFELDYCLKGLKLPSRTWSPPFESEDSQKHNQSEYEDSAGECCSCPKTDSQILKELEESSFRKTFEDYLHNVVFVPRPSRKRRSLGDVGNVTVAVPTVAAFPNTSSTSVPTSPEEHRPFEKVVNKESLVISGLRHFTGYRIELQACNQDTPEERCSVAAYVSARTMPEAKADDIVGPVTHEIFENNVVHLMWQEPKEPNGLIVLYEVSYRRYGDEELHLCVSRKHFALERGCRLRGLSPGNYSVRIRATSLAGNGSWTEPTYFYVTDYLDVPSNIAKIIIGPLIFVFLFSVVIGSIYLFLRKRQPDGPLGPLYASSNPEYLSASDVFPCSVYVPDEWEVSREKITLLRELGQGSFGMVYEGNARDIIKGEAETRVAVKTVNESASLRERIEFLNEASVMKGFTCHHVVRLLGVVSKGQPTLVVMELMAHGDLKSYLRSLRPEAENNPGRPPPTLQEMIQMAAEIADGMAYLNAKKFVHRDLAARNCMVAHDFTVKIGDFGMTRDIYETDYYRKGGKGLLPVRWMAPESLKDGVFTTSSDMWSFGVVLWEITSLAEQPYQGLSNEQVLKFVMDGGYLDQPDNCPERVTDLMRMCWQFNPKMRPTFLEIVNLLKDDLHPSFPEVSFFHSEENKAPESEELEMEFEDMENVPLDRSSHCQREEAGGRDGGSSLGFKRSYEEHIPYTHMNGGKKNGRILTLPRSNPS
insulin receptor A, sequence (P06213 763-1382 partner limits assumed): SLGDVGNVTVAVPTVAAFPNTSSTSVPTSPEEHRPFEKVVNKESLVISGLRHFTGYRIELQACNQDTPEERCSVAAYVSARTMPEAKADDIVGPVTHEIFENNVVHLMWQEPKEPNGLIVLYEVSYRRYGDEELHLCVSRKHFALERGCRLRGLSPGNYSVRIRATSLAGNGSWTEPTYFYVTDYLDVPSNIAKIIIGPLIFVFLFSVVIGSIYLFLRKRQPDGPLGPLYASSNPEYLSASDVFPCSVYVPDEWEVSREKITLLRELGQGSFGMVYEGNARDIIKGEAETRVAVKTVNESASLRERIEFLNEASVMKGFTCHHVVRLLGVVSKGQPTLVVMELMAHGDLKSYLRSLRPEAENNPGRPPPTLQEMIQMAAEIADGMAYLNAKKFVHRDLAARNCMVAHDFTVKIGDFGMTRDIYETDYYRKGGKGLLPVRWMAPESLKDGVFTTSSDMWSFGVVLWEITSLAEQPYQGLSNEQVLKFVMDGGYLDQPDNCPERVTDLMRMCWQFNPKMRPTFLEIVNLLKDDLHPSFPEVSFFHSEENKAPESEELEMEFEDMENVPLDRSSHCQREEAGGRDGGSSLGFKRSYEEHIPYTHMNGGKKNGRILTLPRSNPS

Regarding “A14E, A21G, A22(GQAPGQEP)6, A70K^, A71P, B25H, B29R, desB30 human insulin/(227A, 234A, 235K, 297E, 315Q, 384Q, des447 hIgG4-Fc(228-447))4-[bis[2-[(2-acetyl)amino]ethyl]amino]-4-oxo-butanoyl Conjugate [Example 5.14]”, the Average blood glucose in the data set on Sprague-Dawley rats (time 0 days) was found to be 6.248 mM; in the data set with Sprague-Dawley rats (time 0.041667 days) it was 5.32 mM; in the data set on Sprague-Dawley rats (time 0.125 days), 4.08 mM; in the data set on Sprague-Dawley rats (time 0.291667 days), 3.048 mM; with Sprague-Dawley rats (time 1 day), 2.356 mM; in the data set on Sprague-Dawley rats (time 2 days), 2.4 mM. Further, the Average blood glucose in the data set with Sprague-Dawley rats (time 3 days) is reported as 2.832 mM; in the data set with Sprague-Dawley rats (time 4 days), 4.304 mM; in the data set on Sprague-Dawley rats (time 6 days), 6.032 mM; in the data set with Sprague-Dawley rats (time 7 days), 6.076 mM; with Sprague-Dawley rats (time 8 days), 5.5 mM. Further, in data set [1], the “PK rat iv [T½ (h)] Mean Value” is reported as 46.6 h. The “PK rat sc [T½ (h)] Mean Value” in data set [1] came out at 54.0 h. In addition, the “Insulin receptor affinity [IC50 relative to HI (%)] Mean Value” on insulin receptor A worked out at 5.37%. The “Lipogenesis in rat adipocytes [Potency (%)] Mean Value” in the data set with isolated rat adipocytes was found to be 4.86%.
“A14E, A21G, A22(GQEP)12, A70K^, A71P, B25H, B29R, desB30 human insulin/(227A, 234A, 235K, 297E, 315Q, 384Q, des447 hIgG4-Fc(228-447))4-[bis[2-[(2-acetyl)amino]ethyl]amino]-4-oxo-butanoyl Conjugate [Example 5.17]”: the Average blood glucose with Sprague-Dawley rats (time 0 days) was 6.372 mM; in the data set with Sprague-Dawley rats (time 0.041667 days), 5.84 mM; in the data set on Sprague-Dawley rats (time 0.125 days) it was 5.14 mM; with Sprague-Dawley rats (time 0.291667 days) it was 3.672 mM; with Sprague-Dawley rats (time 1 day) it was 2.6 mM; in the data set on Sprague-Dawley rats (time 2 days) it was 2.704 mM. In addition, the Average blood glucose with Sprague-Dawley rats (time 3 days) is recorded as 2.772 mM; in the data set with Sprague-Dawley rats (time 4 days) it was 5.232 mM; with Sprague-Dawley rats (time 6 days) it was 5.88 mM; in the data set on Sprague-Dawley rats (time 7 days) it was 5.908 mM; in the data set on Sprague-Dawley rats (time 8 days), 5.656 mM. The “PK rat iv [T½ (h)] Mean Value” in data set [1] was 46.2 h. In data set [1], the “PK rat sc [T½ (h)] Mean Value” amounted to 40.3 h. Besides, on insulin receptor A, the “Insulin receptor affinity [IC50 relative to HI (%)] Mean Value” came out at 3.98%. For the same substance, in the data set on isolated rat adipocytes, the “Lipogenesis in rat adipocytes [Potency (%)] Mean Value” was 4.39%.
